In PubChem BioAssay (NCI):
Values joined by “and” are separate entries in the source; they are usually repeats but may differ in a detail not shown here. Equal entries are not always repeated.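 Five concentrations, 48 hours, 96-well plates. At the GI50, growth is halved. TGI denotes the concentration required for complete inhibition of growth.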

Assays:
Assay in all cases: DTP human tumour cell line panel, 48 h
NCI/ADR-RES ovarian = system: NCI/ADR-RES ovarian
SF-295 CNS = system: SF-295 CNS
SK-MEL-28 melanoma = system: SK-MEL-28 melanoma
MALME-3M melanoma = system: MALME-3M melanoma
HL-60(TB) leukemia = system: HL-60(TB) leukemia
BT-549 breast = system: BT-549 breast
A498 renal = system: A498 renal
SW-620 colon = system: SW-620 colon
LOX IMVI melanoma = system: LOX IMVI melanoma
786-0 renal = system: 786-0 renal

Compound	GI50 (NCI/ADR-RES ovarian) [µM]	TGI (NCI/ADR-RES ovarian) [µM]	GI50 (SF-295 CNS) [µM]	TGI (SF-295 CNS) [µM]	GI50 (SK-MEL-28 melanoma) [µM]	TGI (SK-MEL-28 melanoma) [µM]	GI50 (MALME-3M melanoma)	TGI (MALME-3M melanoma)	GI50 (HL-60(TB) leukemia) [µM]	TGI (HL-60(TB) leukemia) [µM]	GI50 (BT-549 breast) [µM]	TGI (BT-549 breast) [µM]	GI50 (A498 renal) [µM]	TGI (A498 renal) [µM]	GI50 (SW-620 colon) [µM]	TGI (SW-620 colon) [µM]	GI50 (LOX IMVI melanoma)	TGI (LOX IMVI melanoma)	GI50 (786-0 renal)	TGI (786-0 renal)
Cc1ccc(/C=C(/C#N)n2nnc3cccc(F)c32)cc1	0.159	0.848	0.368	7.39	0.902	18.1	0.488 µM	17.6 µM	0.295	4.42	0.634	8.99	0.226	0.877	0.354	5.53	0.409 µM	1.81 µM	0.384 µM	14.1 µM
CC(C)(Oc1cccc(N2CCC[C@@H](C(=O)N(Cc3ccc(-c4cn[nH]c4)cc3)C3CC3)C2)c1)C(=O)N1CCNCC1	24.1	73.6	12.5	26	13.1	26.1	11.8 µM	24.5 µM	13.8	> 100	13.3	26.6	16	30.1	15.5	31.5	11.8 µM	25 µM	11.7 µM	25 µM
Nc1nc(N)c2c(Cl)c(CNc3ccc(Cl)c(Cl)c3)ccc2n1		18.7		12.2		18.7		12.8 µM		2.75		19.1		8.68		14.6		7.37 µM		8.39 µM
O=C(NNC1=NS(=O)(=O)c2ccccc2N1c1ccccc1)c1cnccn1	> 100	> 100	> 100	> 100	> 100	> 100	> 100 µM	> 100 µM	> 100	> 100	> 100	> 100	> 100	> 100	> 100	> 100	> 100 µM	> 100 µM	> 100 µM	> 100 µM
C=CCc1cc(O)ccc1O	22.7	> 100	49.5	> 100	> 100	> 100	23.6 µM	> 100 µM	2.53	7.04	6.16	> 100	> 100	> 100	21.6	44.8	17 µM	48.8 µM	22.8 µM	> 100 µM
N#Cc1ncc(-c2ccc(C(F)(F)F)cc2)c(NC2CCCCCC2)n1	18.1	> 100	27.5	> 100	71.5	> 100	> 100 µM	> 100 µM	10.4	> 100	29.1	> 100	21.4	> 100	8.64	> 100			47.7 µM	> 100 µM
NC(=O)NC(=O)Nc1ccc(Br)cc1		> 63.5		> 100		> 17.7		> 27.9 µM		> 6.62		> 100		> 100		> 29.4		> 56.9 µM		> 100 µM
COc1ccc(/C=C/C(=O)OC2CC34CCNC35CC(OC5(OC)C2OC)c2ccc(OC)c(O)c24)cc1O (stereo unspecified)		> 100		> 100		> 100	11.3 µM and > 100 µM	50.9 µM and > 100 µM		62.8		> 100		> 100		> 100	30.4 µM and > 100 µM	76.5 µM and > 100 µM	22.2 µM and > 100 µM	52.3 µM and > 100 µM
Cc1cc2c(C(C)C)c(O)c(O)c(/C=N/O)c2c(O)c1-c1c(C)cc2c(C(C)C)c(O)c(O)c(/C=N/O)c2c1O	3.4	15.1	2.61	13.3	1.84	6.8	3.91 µM	20.4 µM	2.61	10.6	2.42	13.8	2.54	10.4	2.94	12.3	1.53 µM	3.47 µM	3.22 µM	13.3 µM
CC(=O)NC(CCc1ccc(Cl)c(Cl)c1)c1cccc(O)c(=O)c1 (stereo unspecified)	0.338	4.92	0.399	10	1.07	12.3	1.45 µM	7.12 µM	0.833	5.3	0.803	12.8	1.15	25.8	0.531	23.7	0.559 µM	7.5 µM	0.591 µM	12 µM
COC(=O)NC1=Nc2ccccc2C(=O)NN1		> 100		> 100		> 100		> 100 µM		> 100		> 100		> 100		> 100		> 100 µM		> 100 µM
C/C(=N\O)C1CC(CC(=O)O)C1(C)C (stereo unspecified)		> 100		> 100		> 100		> 100 µM		> 100		> 100		> 100		> 100		> 100 µM		> 100 µM
Cc1[nH]c(N)nc(=S)c1CCCNc1ccccc1		> 100		> 100		> 100		99 µM		> 100		> 100		92.4		> 100		> 100 µM		> 100 µM
CCc1nc(N)nc(N)c1-c1ccc(N2CCNCC2)c([N+](=O)[O-])c1		> 100		> 100		> 100		37.3 µM		> 85.2		> 100		> 100		> 100		> 66.1 µM		> 74.3 µM
CCN(CC)Cc1cc(Nc2ccnc3ccc(OC)cc23)ccc1O	4.87	28.8	2.39	7.64	3.4	10.4	3.85 µM	15.7 µM	1.94	8.83	9.53	27.9	2.75	12.5	3.6	19.7	2.36 µM	6.48 µM	4.67 µM	18.8 µM
N#Cc1c(-c2ccccc2)nc(SCC(O)CN2CCOCC2)nc1N1CCOCC1 (stereo unspecified)	39.5	> 100	5.49	> 100	11.2	> 100	4.73 µM	> 100 µM	4.05	15.3	7.26	> 100	2.43	23	51.9	> 100	17.6 µM	> 100 µM	14.8 µM	> 100 µM
CCN(CC)CCOc1ccc2c(-c3ccccc3)c(-c3ccc(OC)cc3)c(=O)oc2c1	4.51	17.5	1.69	3.62	1.96	4.38	1.28 µM	3.08 µM	1.7	3.98	6.16	19.4	3.13	16.4	2.14	5.76	1.93 µM	4.27 µM	2.22 µM	5.37 µM
CCCCNC(=O)CC1=C(C)/C(=C/c2[nH]c(-c3ccc[nH]3)cc2OC)N=C1C	3.02	9.89	1.6	3.48			2.28 µM	5.43 µM	2.84	6.87	3.74	19.9	2.54	7.43	3.23	13.9	1.56 µM	3.17 µM	2.04 µM	4.64 µM
C=C(CC)C(=O)c1ccc(OCC(=O)O)c(Cl)c1Cl		> 61.9		> 100		33.6		31.7 µM		> 85		17.2		> 100		34.2		29.7 µM		19.7 µM
COc1cccc(N2C(=N)/C(=C3\Nc4ccccc4S3)CC2=O)c1	15.8	> 100	1.64	8.1	> 100	> 100	> 100 µM	> 100 µM	4.85	> 100	44.9	> 100	2.02	80	4.87	> 100	3.21 µM	> 100 µM	4.91 µM	> 100 µM
C=C1CC[C@@](C)(c2cc(Br)c(C)cc2OC(C)=O)[C@H]1C	12.1	25	10.7	23.2	11.7	24	15.2 µM	30.5 µM	11.9	28.2	19	34.1	16.8	31.6	11.8	24.6	14.8 µM	31 µM	12.6 µM	25.4 µM
Nc1ncc(-c2ccc3ncnc(N4CCc5cc(F)c(Cl)cc54)c3c2)cc1C=O	2.82	> 100	1.32	> 27.9	1.61	> 100	1.13 µM	> 100 µM	0.403	3.86	1.31	> 100	0.167	0.758			2.52 µM	> 100 µM	0.658 µM	> 100 µM
O=C(O)C1CC[N-]CC1.O=C(O)C1CC[N-]CC1.[NH2-].[NH2-].[Pt+4]	> 100	> 100	> 100	> 100	> 100	> 100	> 100 µM	> 100 µM	> 100	> 100	> 100	> 100	> 100	> 100	> 100	> 100	> 100 µM	> 100 µM	> 100 µM	> 100 µM
O=C(O)c1cc(-c2ccc(-c3ccccc3)cc2)nc2cc3ccccc3cc12		> 100		> 100		> 100		> 100 µM		> 100		> 100		> 100		> 100		> 100 µM		67.6 µM
CC[C@]1(O)CC2CN(CCc3c([nH]c4ccccc34)C(C(=O)OC)(c3cc4c(cc3OC)N(C=O)[C@H]3[C@@](O)(C(=O)OC)[C@H](OC(C)=O)[C@]5(CC)[C@@H]6C[C@@H]6CN6CC[C@]43[C@@H]65)C2)C1 (stereo partly specified)	0.179	1.23	< 0.00325	0.325			0.104 µM	17.9 µM	< 0.00325	< 0.00325	< 0.00325	0.015	< 0.00325	0.00882	< 0.00325	> 32.5	< 0.00325 µM	> 26 µM	< 0.00325 µM	6.65 µM
CC(=O)CCC[C@@H](C)[C@@H]1O[C@H]([C@@]2(C)CCC(=O)O2)CC2[C@H]1OC(=O)C21CC1 (stereo partly specified)	71.3	> 100	61.6	> 100	> 100	> 100			> 100	> 100	25.5	63.4			> 100	> 100	77.1 µM	> 100 µM	> 100 µM	> 100 µM
CN(C)C/C=C/C(=O)Nc1ccc(C(=O)Nc2cccc(Nc3ncc(Cl)c(-c4c[nH]c5ccccc45)n3)c2)cc1	1.54	> 100	0.155	0.475	0.0215	0.532	0.0212 µM	0.0873 µM			0.0336	0.42	0.0189	0.119	0.031	11.3	0.0133 µM	0.0856 µM	0.0441 µM	
Oc1ccc(/C=N/NC(=S)Nc2ccccc2)nc1	1.43	> 100			3.14	> 100	2.19 µM	30.6 µM	1.55	6.77	1.7	> 100	3	> 100	2.07	> 100	0.464 µM	16.6 µM	1.84 µM	12.4 µM
